# Test results from PubChem BioAssay (NCI).
#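 Exposure lasted 48 hours, with cells grown in 96-well plates and compounds tested at five concentrations. TGI: total growth inhibition.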
# Columns and labels:
# Test in all cases: NCI-60 cell line screen, 48 h
# 786-0 renal = test system: 786-0 renal
# A498 renal = test system: A498 renal
# A549 NSCLC = test system: A549 NSCLC
# ACHN renal = test system: ACHN renal
# BT-549 breast = test system: BT-549 breast
# CAKI-1 renal = test system: CAKI-1 renal
# CCRF-CEM leukemia = test system: CCRF-CEM leukemia
# COLO 205 colon = test system: COLO 205 colon
# DU-145 prostate = test system: DU-145 prostate
# EKVX NSCLC = test system: EKVX NSCLC
# HCC-2998 colon = test system: HCC-2998 colon
# HCT-116 colon = test system: HCT-116 colon
# HCT-15 colon = test system: HCT-15 colon
# HL-60(TB) leukemia = test system: HL-60(TB) leukemia
# HOP-62 NSCLC = test system: HOP-62 NSCLC
# HOP-92 NSCLC = test system: HOP-92 NSCLC
# HS 578T breast = test system: HS 578T breast
# HT29 colon = test system: HT29 colon
# IGROV1 ovarian = test system: IGROV1 ovarian
# K-562 leukemia = test system: K-562 leukemia
# KM12 colon = test system: KM12 colon
# LOX IMVI melanoma = test system: LOX IMVI melanoma
# M14 melanoma = test system: M14 melanoma
# MALME-3M melanoma = test system: MALME-3M melanoma
# MCF7 breast = test system: MCF7 breast
# MDA-MB-231 breast = test system: MDA-MB-231 breast
# MDA-MB-435 = test system: MDA-MB-435
# MDA-N = test system: MDA-N
# MOLT-4 leukemia = test system: MOLT-4 leukemia
# NCI-H226 lung = test system: NCI-H226 lung
# NCI-H23 lung = test system: NCI-H23 lung
# NCI-H460 lung = test system: NCI-H460 lung
# NCI-H522 lung = test system: NCI-H522 lung
# NCI/ADR-RES ovarian = test system: NCI/ADR-RES ovarian
# OVCAR-3 ovarian = test system: OVCAR-3 ovarian
# OVCAR-4 ovarian = test system: OVCAR-4 ovarian
# OVCAR-5 ovarian = test system: OVCAR-5 ovarian
# OVCAR-8 ovarian = test system: OVCAR-8 ovarian
# PC-3 prostate = test system: PC-3 prostate
# RPMI-8226 leukemia = test system: RPMI-8226 leukemia
# RXF 393 renal = test system: RXF 393 renal
# SF-268 CNS = test system: SF-268 CNS
# SF-295 CNS = test system: SF-295 CNS
# SK-MEL-2 melanoma = test system: SK-MEL-2 melanoma
# SK-MEL-28 melanoma = test system: SK-MEL-28 melanoma
# SK-MEL-5 melanoma = test system: SK-MEL-5 melanoma
# SK-OV-3 ovarian = test system: SK-OV-3 ovarian
# SN12C renal = test system: SN12C renal
# SNB-19 CNS = test system: SNB-19 CNS
# SNB-75 CNS = test system: SNB-75 CNS
# SR leukemia = test system: SR leukemia
# SW-620 colon = test system: SW-620 colon
# T-47D breast = test system: T-47D breast
# TK-10 renal = test system: TK-10 renal
# U251 CNS = test system: U251 CNS
# UACC-257 melanoma = test system: UACC-257 melanoma
# UACC-62 melanoma = test system: UACC-62 melanoma
# UO-31 renal = test system: UO-31 renal
# SF-539 CNS = test system: SF-539 CNS
smiles,measurement,setting,value
Oc1ccccc1C(Sc1nc2ccccc2s1)Sc1nc2ccccc2s1,TGI,786-0 renal,> 100 µM
same,TGI,A498 renal,> 100 µM
same,TGI,A549 NSCLC,> 100 µM
same,TGI,ACHN renal,> 100 µM
same,TGI,BT-549 breast,> 100 µM
same,TGI,CAKI-1 renal,> 100 µM
same,TGI,CCRF-CEM leukemia,> 100 µM
same,TGI,COLO 205 colon,> 100 µM
same,TGI,DU-145 prostate,> 100 µM
same,TGI,EKVX NSCLC,77.9 µM
same,TGI,HCC-2998 colon,> 100 µM
same,TGI,HCT-116 colon,> 100 µM
same,TGI,HCT-15 colon,> 100 µM
same,TGI,HL-60(TB) leukemia,> 100 µM
same,TGI,HOP-62 NSCLC,> 100 µM
same,TGI,HOP-92 NSCLC,95 µM
same,TGI,HS 578T breast,> 100 µM
same,TGI,HT29 colon,> 100 µM
same,TGI,IGROV1 ovarian,> 100 µM
same,TGI,K-562 leukemia,> 100 µM
same,TGI,KM12 colon,> 100 µM
same,TGI,LOX IMVI melanoma,> 100 µM
same,TGI,M14 melanoma,> 100 µM
same,TGI,MALME-3M melanoma,> 100 µM
same,TGI,MCF7 breast,> 100 µM
same,TGI,MDA-MB-231 breast,> 100 µM
same,TGI,MDA-MB-435,> 100 µM
same,TGI,MDA-N,> 100 µM
same,TGI,MOLT-4 leukemia,> 100 µM
same,TGI,NCI-H226 lung,> 100 µM
same,TGI,NCI-H23 lung,> 100 µM
same,TGI,NCI-H460 lung,> 100 µM
same,TGI,NCI-H522 lung,56.8 µM
same,TGI,NCI/ADR-RES ovarian,> 100 µM
same,TGI,OVCAR-3 ovarian,> 100 µM
same,TGI,OVCAR-4 ovarian,> 100 µM
same,TGI,OVCAR-5 ovarian,> 100 µM
same,TGI,OVCAR-8 ovarian,> 100 µM
same,TGI,PC-3 prostate,> 100 µM
same,TGI,RPMI-8226 leukemia,> 100 µM
same,TGI,RXF 393 renal,> 100 µM
same,TGI,SF-268 CNS,> 100 µM
same,TGI,SF-295 CNS,> 100 µM
same,TGI,SK-MEL-2 melanoma,> 100 µM
same,TGI,SK-MEL-28 melanoma,> 100 µM
same,TGI,SK-MEL-5 melanoma,> 100 µM
same,TGI,SK-OV-3 ovarian,> 100 µM
same,TGI,SN12C renal,> 100 µM
same,TGI,SNB-19 CNS,> 100 µM
same,TGI,SNB-75 CNS,> 100 µM
same,TGI,SR leukemia,> 100 µM
same,TGI,SW-620 colon,> 100 µM
same,TGI,T-47D breast,73.5 µM
same,TGI,TK-10 renal,> 100 µM
same,TGI,U251 CNS,> 100 µM
same,TGI,UACC-257 melanoma,> 100 µM
same,TGI,UACC-62 melanoma,> 100 µM
same,TGI,UO-31 renal,> 100 µM
CCOC(=O)/C=C(/C(=O)OCC)n1ccc(=O)n(Cc2cn(COCCOC(C)=O)nn2)c1=O,TGI,786-0 renal,> 100 µM
same,TGI,A498 renal,56.1 µM
same,TGI,A549 NSCLC,> 100 µM
same,TGI,ACHN renal,28 µM
same,TGI,BT-549 breast,30.4 µM
same,TGI,CAKI-1 renal,14 µM
same,TGI,CCRF-CEM leukemia,4.8 µM
same,TGI,COLO 205 colon,> 100 µM
same,TGI,DU-145 prostate,> 100 µM
same,TGI,EKVX NSCLC,30.6 µM
same,TGI,HCC-2998 colon,36.2 µM
same,TGI,HCT-116 colon,80.8 µM
same,TGI,HCT-15 colon,55.6 µM
same,TGI,HOP-62 NSCLC,> 100 µM
same,TGI,HOP-92 NSCLC,5.04 µM
same,TGI,HS 578T breast,70.9 µM
same,TGI,HT29 colon,31.9 µM
same,TGI,IGROV1 ovarian,31.9 µM
same,TGI,K-562 leukemia,> 100 µM
same,TGI,KM12 colon,35.9 µM
same,TGI,LOX IMVI melanoma,41.9 µM
same,TGI,MCF7 breast,28.3 µM
same,TGI,MDA-MB-231 breast,67.9 µM
same,TGI,MDA-MB-435,36 µM
same,TGI,MDA-N,> 100 µM
same,TGI,MOLT-4 leukemia,41.3 µM
same,TGI,NCI-H226 lung,> 100 µM
same,TGI,NCI-H23 lung,41.4 µM
same,TGI,NCI-H460 lung,29 µM
same,TGI,NCI-H522 lung,16 µM
same,TGI,NCI/ADR-RES ovarian,48.1 µM
same,TGI,OVCAR-3 ovarian,33.4 µM
same,TGI,OVCAR-4 ovarian,42.7 µM
same,TGI,OVCAR-5 ovarian,35.2 µM
same,TGI,OVCAR-8 ovarian,30 µM
same,TGI,PC-3 prostate,> 100 µM
same,TGI,RPMI-8226 leukemia,50.3 µM
same,TGI,RXF 393 renal,56.2 µM
same,TGI,SF-268 CNS,33.5 µM
same,TGI,SF-295 CNS,> 100 µM
same,TGI,SF-539 CNS,34.5 µM
same,TGI,SK-MEL-2 melanoma,64.4 µM
same,TGI,SK-MEL-28 melanoma,35.1 µM
same,TGI,SK-MEL-5 melanoma,75.4 µM
same,TGI,SK-OV-3 ovarian,> 100 µM
same,TGI,SN12C renal,> 100 µM
same,TGI,SNB-19 CNS,> 100 µM
same,TGI,SNB-75 CNS,> 100 µM
same,TGI,SR leukemia,52.6 µM
same,TGI,SW-620 colon,29 µM
same,TGI,T-47D breast,81 µM
same,TGI,TK-10 renal,32 µM
same,TGI,U251 CNS,83.3 µM
same,TGI,UACC-257 melanoma,42.4 µM
same,TGI,UACC-62 melanoma,36.7 µM
same,TGI,UO-31 renal,31.9 µM
